Counter-ions that a name gives are not always drawn.
Assays:
human recombinant DAO = human recombinant DAO (Homo sapiens (Human), UniProt P19801); test: Determination of selective inhibitory for DAO (diamine oxidase); type: biochemical; settings: human recombinant DAO, 1,4-diaminobutane substrate
Experimental: 3. Determination of Selective Inhibitory for DAO (Diamine Oxidase)
Test purpose: The following methods can be used to determine the selective inhibitory activity of the compounds of the invention for DAO.
human recombinant DAO (Recombinant Human ABP-1/DAO) purchased from R&D, Cat. No. 8298-AO;
The test compound was dissolved in DMSO and diluted to 6 concentrations in 5-fold serial dilution. In 384 well plates, 24 μL of human recombinant DAO (1 μg/mL) was added to each well. 1 μL Of test compounds with different concentrations were added to each well containing human recombinant DAO and incubated at 37° C. for 30 min. After 30 min incubation, 25 μL of Amplex® Red Hydrogen PeroxidePeroxidase Assay Kit (containing a reaction mixture of 100 μM Amplex® Red and 0.2 U/mL HRP) containing 1 M 1,4-Diaminobutane dihydrochloride was added to the corresponding well, and incubated at 37° C. and dark for 30 min. After 30 min, the relative fluorescence unit (RFU) was read by using PHERAstar FSX enzyme marker of BMG LABTECH at 540 nm excitation and 580 nm emission. The curve was drawn by using the graph pad prism 5 software, and the IC50 value was calculated. The results were shown in table 3, wherein the compound listed in table 3 is the compound in the preparation examples with the same compound number: […]

[1] = biological target: rat adipose tissue homogenate SSAO/VAP-1 (Rattus norvegicus (Rat), UniProt O08590); test: Determination of inhibitory activity of rat adipose tissue homogenate SSAO/VAP-1; type: biochemical, Sprague Dawley rats; settings: rat abdominal adipose tissue homogenate, pargyline pretreated, 37° C.
Chain of rat adipose tissue homogenate SSAO/VAP-1 (O08590 whole entry): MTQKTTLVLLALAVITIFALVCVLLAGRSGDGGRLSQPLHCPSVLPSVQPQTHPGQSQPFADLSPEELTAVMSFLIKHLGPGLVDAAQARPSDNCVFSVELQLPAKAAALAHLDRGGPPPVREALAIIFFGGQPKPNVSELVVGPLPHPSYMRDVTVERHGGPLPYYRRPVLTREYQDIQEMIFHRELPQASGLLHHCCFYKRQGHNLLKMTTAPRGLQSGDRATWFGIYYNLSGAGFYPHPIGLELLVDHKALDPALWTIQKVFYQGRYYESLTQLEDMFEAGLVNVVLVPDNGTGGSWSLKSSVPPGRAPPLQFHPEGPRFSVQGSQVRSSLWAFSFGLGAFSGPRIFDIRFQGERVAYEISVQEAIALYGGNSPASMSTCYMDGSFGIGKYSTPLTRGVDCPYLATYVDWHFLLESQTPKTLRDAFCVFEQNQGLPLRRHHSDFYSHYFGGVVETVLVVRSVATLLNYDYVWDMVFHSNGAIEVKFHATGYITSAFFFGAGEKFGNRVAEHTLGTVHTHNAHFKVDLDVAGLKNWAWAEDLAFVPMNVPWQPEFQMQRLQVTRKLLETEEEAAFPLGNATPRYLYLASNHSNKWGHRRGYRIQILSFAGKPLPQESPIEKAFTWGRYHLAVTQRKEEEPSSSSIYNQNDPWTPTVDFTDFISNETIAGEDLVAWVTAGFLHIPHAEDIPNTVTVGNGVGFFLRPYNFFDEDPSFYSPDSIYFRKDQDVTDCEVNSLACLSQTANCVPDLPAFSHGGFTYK
Experimental: 2. Determination of Inhibitory Activity of Rat Adipose Tissue Homogenate SSAO/VAP-1
Test purpose: The following methods can be used to determine the inhibitory activity of the compounds of the invention for rat adipose tissue homogenate SSAO/VAP-1.
The abdominal fat removed from Sprague Dawley rats was a tissue rich in SSAO/VAP-1. 5 mL Of HES buffer per gram of rat abdominal adipose tissue (20 mM Sodium N-piperazine-N-ethanesulfonate, 1 mm EDTA, 250 mM sucrose, 1×PMSF and 100 mM (3-glycerol phosphate disodium salt hydrate, pH 7.4) was added for homogenizing. The fat tissue was homogenized for 3 min by using Bertin precellys 24 multi-functional sample homogenizer of Bertin technologies, and the fat tissue homogenate was centrifuged for 10 min at 4° C. and 20000 g, and the middle transparent supernatant was taken. The supernatant was incubated with 0.5 mm Pargyline hydrochloride dissolved in HES buffer at 37° C. for 30 min. After 30 min incubation, 25 μl of fat tissue supernatant was added to the standard 96 well plate. The test compound was dissolved in DMSO and diluted to 6 concentrations. 25 μL Of the test compounds with different concentrations was added to each well containing the supernatant of fat tissue and incubated at 37° C. for 30 min. After incubation, 50 μL of the reaction mixture containing 80 μM benzylamine hydrochloride (containing 100 μM Amplex® red and 0.2 U/mL HRP, Amplex® Red Hydrogen peroxideperoxidase assay kit) was added to the corresponding wells and incubated at 37° C. for 30 min. After 30 min, the relative fluorescence unit (RFU) was read by using PHERAstar FSX enzyme marker of BMG LABTECH at 540 nm excitation and 580 nm emission. The curve was drawn by using the graph pad prism 5 software, and the IC50 value was calculated. The results were shown in table 2, wherein the compound listed in table 2 is the compound in the preparation examples with the same compound number: Table 2: inhibitory activity of the compound of examples of the invention for SSAO/VAP-1 of fat tissue homogenate

[2] = biological target: Human recombinant SSAO/VAP-1 (Homo sapiens (Human), UniProt Q16853); test: Determination of inhibitory activity of human recombinant SSAO/VAP-1 (Amplex Red, benzylamine); type: biochemical; settings: human recombinant SSAO/VAP-1, 30 min preincubation at room temperature; read-out: SSAO/VAP-1(Human recombinant protein) IC50/nM
Chain of Human recombinant SSAO/VAP-1 (Q16853 whole entry): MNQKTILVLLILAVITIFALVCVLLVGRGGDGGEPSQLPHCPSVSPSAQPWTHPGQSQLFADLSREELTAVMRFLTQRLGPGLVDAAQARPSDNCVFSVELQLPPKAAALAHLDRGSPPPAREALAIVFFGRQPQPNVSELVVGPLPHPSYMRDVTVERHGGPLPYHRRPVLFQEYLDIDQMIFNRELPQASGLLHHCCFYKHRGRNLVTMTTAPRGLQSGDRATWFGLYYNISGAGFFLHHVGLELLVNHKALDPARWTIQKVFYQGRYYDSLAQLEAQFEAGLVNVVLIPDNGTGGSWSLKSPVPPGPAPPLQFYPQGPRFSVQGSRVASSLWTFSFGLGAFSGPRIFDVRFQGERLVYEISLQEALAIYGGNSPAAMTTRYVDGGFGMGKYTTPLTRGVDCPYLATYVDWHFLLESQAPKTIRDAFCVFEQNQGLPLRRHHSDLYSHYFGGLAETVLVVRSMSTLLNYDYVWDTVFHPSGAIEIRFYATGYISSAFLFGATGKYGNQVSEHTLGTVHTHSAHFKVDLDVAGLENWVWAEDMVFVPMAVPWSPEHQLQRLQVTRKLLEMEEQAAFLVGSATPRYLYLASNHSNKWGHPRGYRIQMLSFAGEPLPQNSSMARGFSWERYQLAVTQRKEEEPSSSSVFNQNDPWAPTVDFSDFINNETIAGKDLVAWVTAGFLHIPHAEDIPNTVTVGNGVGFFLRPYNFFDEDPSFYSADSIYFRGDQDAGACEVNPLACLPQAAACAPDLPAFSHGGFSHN
Experimental: 1. Determination of Inhibitory Activity of Human Recombinant SSAO/VAP-1
Test purpose: The following methods can be used to determine the inhibitory activity of the compounds described in the examples of the invention for human recombinant SSAO/VAP-1.
Human recombinant SSAO/VAP-1 (VAP-1, human) purchased from Sigma, Cat. No. SRP6241;
The test compound was dissolved in DMSO and diluted to 10 concentrations in 4-fold serial dilution. In 384 well plates, 25 μL of human recombinant SSAO/VAP-1 (1.6 μg/ml) was added to each well. 100 nL of test compounds with different concentrations were added to each well containing human recombinant SSAO/VAP-1 and incubated at room temperature for 30 min. After 30 min incubation, 25 μl of Amplex® red monoamine oxidase assay kit (containing a reaction mixture of 200 μm Amplex Red reagent, 1 U/ml HRP and 1 mm benzylamine hydrochloride) was added to the corresponding well, and incubated at room temperature and dark for 60 min. After 60 min, the relative fluorescence unit (RFU) was read by using PerkinElmer's Envision at 530-560 nm excitation and 590 nm emission. The curve was drawn by using the graph pad prism 5 software, and the IC50 value was calculated. The results were shown in table 1, wherein the compound listed in table 1 is the compound in the preparation examples with the same compound number: […]

[3] = Pharmacokinetics in SD rats after intravenous or oral administration; type: in vivo; settings: male, rat, plasma; for Vd: read-out: Vss
Experimental: 4. Pharmacokinetic Activities of the Compounds of the Invention
Test purpose: The following methods were used to evaluate the pharmacokinetics of the compound of the invention.
SD rats: male, 180-220 g, 7-8 weeks old, purchased from Hunan SJA Laboratory Animal Co., Ltd.
Test compound was prepared by dissolving in a mixture of 5% DMSO+5% KolliphorHS15+90% Saline and adjusted according to the dissolution of each compound, so that the compound can be completely dissolved.
The samples were processed by liquid-liquid extraction, separated by chromatography, quantitatively analyzed by multiple reaction ion monitoring (MRM) on triple quadrupole tandem mass spectrometer, and the results were calculated by using quantitative software.
Taking 30 μL of plasma sample precisely, adding 250 μL of internal standard, and vortex mixing uniformly. Extracting once with 1 mL MTBE, centrifugating at 13000 rpm and 4° C. for 2 min, taking 800 μL of supernatant, and evaporating it in a 96-well termovap sample concentrator, dissolving the residue with 150 μL methanol/water=50/50, vortex mixing, injecting 8 μL.
Determining the content of different compounds in the plasma of rats after the administration by using LC/MS/MS method.
Pharmacokinetic parameters were calculated using a noncompartmental method by WinNonLin 6.1 software.
The pharmacokinetic data of the compounds of the invention were listed in table 4, wherein the compound listed in table 4 is the compound in the preparation examples with the same compound number: […]

Chain of human recombinant DAO (P19801 20-751): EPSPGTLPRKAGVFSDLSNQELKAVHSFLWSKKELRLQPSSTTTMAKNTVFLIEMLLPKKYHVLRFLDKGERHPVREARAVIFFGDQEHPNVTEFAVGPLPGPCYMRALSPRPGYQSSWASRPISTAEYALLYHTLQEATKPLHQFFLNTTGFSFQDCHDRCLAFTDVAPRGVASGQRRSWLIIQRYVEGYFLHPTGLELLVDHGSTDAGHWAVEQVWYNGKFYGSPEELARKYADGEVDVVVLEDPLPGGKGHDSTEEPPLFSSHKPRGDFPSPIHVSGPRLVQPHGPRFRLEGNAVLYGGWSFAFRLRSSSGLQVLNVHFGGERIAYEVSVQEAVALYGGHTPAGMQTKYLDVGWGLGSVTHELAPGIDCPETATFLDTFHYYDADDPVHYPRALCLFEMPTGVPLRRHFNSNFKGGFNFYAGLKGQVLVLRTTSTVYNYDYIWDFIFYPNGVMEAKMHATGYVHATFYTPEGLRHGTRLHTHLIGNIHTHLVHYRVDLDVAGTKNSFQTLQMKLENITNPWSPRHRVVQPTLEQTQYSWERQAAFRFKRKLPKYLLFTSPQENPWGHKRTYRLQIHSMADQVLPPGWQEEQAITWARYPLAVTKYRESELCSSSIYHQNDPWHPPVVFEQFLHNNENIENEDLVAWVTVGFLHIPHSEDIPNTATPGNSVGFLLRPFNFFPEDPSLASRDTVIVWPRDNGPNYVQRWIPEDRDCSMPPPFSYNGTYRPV

With NC/C(=C\F)COc1ccc2c(c1)CCNC2=O [Compound 3, 6-[(E)-2-(aminomethyl)-3-fluoro-allyloxy]-3,4-dihydro-2H-isoquinolin-1-one hydrochloride] as the compound, how does the IC50 (human recombinant DAO) read?
Its IC50 is greater than 0.1 µM.

For CCOC(=O)CN1CCc2cc(OC/C(=C/F)CN)ccc2C1=O [Compound 12, ethyl 2-[6-[(E)-2-(aminomethyl)-3-fluoro-allyloxy]-1-oxo-3,4-dihydroisoquinolin-2-yl]acetate hydrochloride], which IC50 [1] is on record?
Its IC50 is 10.1 nM.

What about the IC50 [2] of the same compound?
Its IC50 is 0.14 nM.

And the IC50 (human recombinant DAO)?
Its IC50 is greater than 0.1 µM.

And the AUC(0-inf) ([3]; iv, I.V., 1 mg/kg)?
The AUC(0-inf) was 843 ng·h/mL.

What about the AUC(0-t) ([3]; iv, I.V., 1 mg/kg) of the same compound?
Its AUC(0-t) is 837 ng·h/mL.

And the Cmax ([3]; iv, I.V., 1 mg/kg)?
The Cmax was 946 ng/mL.

What about the Tmax ([3]; iv, I.V., 1 mg/kg) of the same compound?
The Tmax was 15 min.

And the clearance ([3]; iv, I.V., 1 mg/kg)?
The clearance was 330 mL/min/kg.

And the half-life ([3]; iv, I.V., 1 mg/kg)?
Its half-life is 56.2 min.

And the Vd ([3]; iv, I.V., 1 mg/kg)?
The Vd was 1.07 L/kg.

And the AUC(0-inf) ([3]; po, P.O., 5 mg/kg)?
The AUC(0-inf) was 2900 ng·h/mL.

And the AUC(0-t) ([3]; po, P.O., 5 mg/kg)?
Its AUC(0-t) is 2890 ng·h/mL.

And the Cmax ([3]; po, P.O., 5 mg/kg)?
The Cmax was 2190 ng/mL.

And the Tmax ([3]; po, P.O., 5 mg/kg)?
The Tmax was 25 min.

And the half-life ([3]; po, P.O., 5 mg/kg)?
The half-life was 57.5 min.

Which IC50 (human recombinant DAO) does the source give for NC/C(=C\F)COc1ccc2c(c1)C(=O)NCC2 [Compound 14, 7-[(E)-2-(aminomethyl)-3-fluoro-allyloxy]-3,4-dihydro-2H-isoquinolin-1-one hydrochloride] here?
Its IC50 is greater than 1 µM.

For COCCN1CCc2cc(OC/C(=C/F)CN)ccc2C1=O [Compound 18, 6-[(E)-2-(aminomethyl)-3-fluoro-allyloxy]-2-(2-methoxyethyl)-3,4-dihydroisoquinolin-1-one hydrochloride], which IC50 [1] is on record?
The IC50 was 6.13 nM.

And the IC50 [2]?
Its IC50 is 0.48 nM.

For COCCN1CCc2cc(OC/C(=C\F)CN)ccc2C1=O [Compound 19, 6-[(Z)-2-(aminomethyl)-3-fluoro-allyloxy]-2-(2-methoxyethyl)-3,4-dihydro isoquinolin-1-one hydrochloride], which IC50 [1] is on record?
Its IC50 is 5.7 nM.

What about the IC50 [2] of the same compound?
The IC50 was 1 nM.

Which results are given for Cc1ccc(N2CCc3cc(OC/C(=C/F)CN)ccc3C2=O)cc1 [Compound 24, 6-[(E)-2-(aminomethyl)-3-fluoro-allyloxy]-2-(p-methylphenyl)-3,4-dihydroisoquinolin-1-one hydrochloride]?
IC50 [2]: 1.16 nM; IC50 (human recombinant DAO): > 0.1 µM; AUC(0-inf) ([3]; iv, I.V., 1 mg/kg): 450 ng·h/mL; AUC(0-t) ([3]; iv, I.V., 1 mg/kg): 364 ng·h/mL; Cmax ([3]; iv, I.V., 1 mg/kg): 144 ng/mL; Tmax ([3]; iv, I.V., 1 mg/kg): 4.98 min; clearance ([3]; iv, I.V., 1 mg/kg): 617 mL/min/kg; half-life ([3]; iv, I.V., 1 mg/kg): 179 min; Vd ([3]; iv, I.V., 1 mg/kg): 9.19 L/kg; AUC(0-inf) ([3]; po, P.O., 5 mg/kg): 5320 ng·h/mL; AUC(0-t) ([3]; po, P.O., 5 mg/kg): 5280 ng·h/mL; Cmax ([3]; po, P.O., 5 mg/kg): 569 ng/mL; Tmax ([3]; po, P.O., 5 mg/kg): 150 min; half-life ([3]; po, P.O., 5 mg/kg): 207 min

For NC/C(=C/F)COc1ccc2c(c1)CCNS2(=O)=O [Compound 33, (E)-2-[(1,1-dioxo-3,4-dihydro-2H-benzo[e][1,2]thiazin-6-yl)oxymethyl]-3-fluoro-prop-2-enyl-1-amine hydrochloride], which IC50 [1] is on record?
The IC50 was 4.88 nM.

And the IC50 [2]?
The IC50 was 1.98 nM.

With Cc1ccccc1N1CCc2cc(OC/C(=C/F)CN)ccc2C1=O [Compound 46, 6-[(E)-2-(aminomethyl)-3-fluoro-allyloxy]-2-o-methylphenyl-3,4-dihydroisoquinolin-1-one hydrochloride] as the compound, how does the IC50 (human recombinant DAO) read?
The IC50 was greater than 0.1 µM.
